From US8232279B2, “Pyrazolopyrimidine derivatives having biological activity on serotonin receptor 5-HT2c” (Korea Institute of Science and Technology, priority 2009, dated 2012) come the findings set out here.

The first assay addresses T1, human recombinant 5-HT2C receptor (Homo sapiens, UniProt P28335).
T1 construct: expressed in transfected cells
T1 sequence (P28335 33-458): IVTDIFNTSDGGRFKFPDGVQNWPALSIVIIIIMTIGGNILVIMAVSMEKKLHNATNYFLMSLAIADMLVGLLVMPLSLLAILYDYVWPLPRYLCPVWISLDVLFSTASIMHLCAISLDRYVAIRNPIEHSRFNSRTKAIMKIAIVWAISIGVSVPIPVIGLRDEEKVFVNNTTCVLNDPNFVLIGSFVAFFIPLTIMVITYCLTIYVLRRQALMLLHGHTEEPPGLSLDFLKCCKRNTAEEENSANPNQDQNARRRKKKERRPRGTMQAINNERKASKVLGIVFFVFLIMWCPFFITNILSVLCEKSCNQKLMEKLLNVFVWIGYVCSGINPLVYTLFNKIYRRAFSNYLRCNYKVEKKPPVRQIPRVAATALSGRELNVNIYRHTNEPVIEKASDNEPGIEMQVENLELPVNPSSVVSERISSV
The assay can be described thus: [3H]Mesulergine binding to serotonin 5-HT2C receptor. The settings on record: [3H]Mesulergine (1 nM); membranes from CHO-K1 cell line expressing human recombinant 5-HT2C receptor; 30 min at 37° C.; read-out: Affinity for 5-HT2C receptor (IC50). The method, then:
[^3H]Mesulergine Binding to Serotonin 5-HT2C Receptor
Frozen membranes from stable CHO—K1 cell line expressing the human recombinant 5-HT2C receptor were used. For the binding assay, [^3H]Mesulergine (1 nM), receptor membrane (4 ug/well) and test compounds were added into 50 mM Tris-HCl (pH 7.7) buffer containing 0.1% ascorbic acid and 10 uM pargyline. Nonspecific binding was determined using 0.5 uM mianserin. The incubations were performed for 30 min at 37° C., and these were terminated by rapid filtration through Whatman GF/C glass fiber filters presoaked in 1% BSA. Then, the resultant was washed with cold 50 mM Tris-HCl buffer. The filter was covered with MeltiLex, sealed in a sample bag followed by drying in the microwave oven, and counted by MicroBeta Plus (Wallac, Finland). Nonspecific binding was determined in the presence of mianserin (0.5 uM). Competition binding studies were carried out with 7-8 varied concentrations of the test compounds run in duplicate tubes, and isotherms from three assays were calculated by computerized nonlinear regression analysis (GraphPad Prism Program, San Diego, USA) to yield IC50 values (Table 1).
A word on the IC50: it is the midpoint of a concentration-inhibition curve. Take `Cn1ncc2c(Nc3ccc(F)cc3)nc(NCCN3CCOCC3)nc21` [Comp. 18, N^4-(4-fluorophenyl)-1-methyl-N^6-(2-morpholinoethyl)-1H-pyrazolo[3,4-d]pyrimidine-4,6-diamine]: the IC50 was > 1000 nM. For the molecule `Cn1ncc2c(Nc3ccc(F)cc3)nc(N3CCCCC3)nc21` [Comp. 22, N-(4-fluorophenyl)-1-methyl-6-(piperidine-1-yl)-1H-pyrazolo[3,4-d]pyrimidine-4-amine], the IC50 is 1300 nM. The same measure, in the same setting: as for `Cc1ccc(CNc2nc(Nc3ccc(F)cc3)c3cnn(C)c3n2)cc1` [Comp. 17, N^4-(4-fluorophenyl)-1-methyl-N^6-(4-methylbenzyl)-1H-pyrazolo[3,4-d]pyrimidine-4,6-diamine], the figure is 5830 nM; as for `COc1cccc(Nc2nc(N3CCN(c4ccc(F)cc4)CC3)nc3c2cnn3C)c1` [Comp. 33, 6-(4-(4-fluorophenyl)piperazine-1-yl)-N-(3-methoxyphenyl)-1-methyl-1H-pyrazolo[3,4-d]pyrimidine-4-amine], 1080 nM; as for `CCN(CC)c1nc(Nc2cccc(OC)c2)c2cnn(C)c2n1` [Comp. 31, N^6,N^6-diethyl-N^4-(3-methoxyphenyl)-1-methyl-1H-pyrazolo[3,4-d]pyrimidine-4,6-diamine], 5420 nM. Still for that read-out and setting: as for `CN(C)c1nc(Nc2ccc(F)cc2)c2cnn(C)c2n1` [Comp. 19, N^4-(4-fluorophenyl)-N^6,N^6,1-trimethyl-1H-pyrazolo[3,4-d]pyrimidine-4,6-diamine], the figure is 4030 nM; as for `Cn1ncc2c(Nc3ccc(F)cc3)nc(N3CCN(Cc4ccccc4)CC3)nc21` [Comp. 27, 6-(4-benzylpiperazine-1-yl)-N-(4-fluorophenyl)-1-methyl-1H-pyrazolo[3,4-d]pyrimidine-4-amine], 836 nM; as for `CCN(CC)c1nc(Nc2ccccc2C)c2cnn(C)c2n1` [Comp. 7, N^6,N^6-diethyl-1-methyl-N^4-o-tolyl-1H-pyrazolo[3,4-d]pyrimidine-4,6-diamine], 242 nM. As to `CN1CCN(c2nc(Nc3ccc(F)cc3)c3cnn(C)c3n2)CC1` [Comp. 35, N-(4-fluorophenyl)-1-methyl-6-(4-methylpiperazine-1-yl)-1H-pyrazolo[3,4-d]pyrimidine-4-amine], the IC50 is 20.1 nM. For the molecule `Cn1ncc2c(Nc3ccc(F)cc3)nc(NCCCO)nc21` [Comp. 10, 3-(4-(4-fluorophenylamino)-1-methyl-1H-pyrazolo[3,4-d]pyrimidine-6-ylamino)propane-1-ol], the IC50 is > 1000 nM. Regarding `COc1ccccc1N1CCN(c2nc(Nc3ccc(F)cc3)c3cnn(C)c3n2)CC1` [Comp. 30, N-(4-fluorophenyl)-6-(4-(2-methoxyphenyl)piperazine-1-yl)-1-methyl-1H-pyrazolo[3,4-d]pyrimidine-4-amine], the IC50 turned out to be 1720 nM. Take `Cn1ncc2c(Nc3ccc(F)cc3)nc(NCc3ccccc3)nc21` [Comp. 16, N^6-benzyl-N4-(4-fluorophenyl)-1-methyl-1H-pyrazolo[3,4-d]pyrimidine-4,6-diamine]: the IC50 was 2590 nM.

As to `CCN(CC)c1nc(Nc2ccc(C)c(C)c2)c2cnn(C)c2n1` [Comp. 4, N^4-(3,4-dimethylphenyl)-N^6,N^6-diethyl-1-methyl-1H-pyrazolo[3,4-d]pyrimidine-4,6-diamine], the IC50 was determined as 8490 nM. Consider `CCN(CC)c1nc(Nc2ccc(Cl)cc2)c2cnn(C)c2n1` [Comp. 5, N^4-(4-chlorophenyl)-N^6,N^6-diethyl-1-methyl-1H-pyrazolo[3,4-d]pyrimidine-4,6-diamine], for which the IC50 amounted to 991 nM.

Consider `CCNc1nc(Nc2ccc(F)cc2)c2cnn(C)c2n1` [Comp. 9, N^6-ethyl-N^4-(4-fluorophenyl)-1-methyl-1H-pyrazolo[3,4-d]pyrimidine-4,6-diamine], for which the half-inhibitory concentration (IC50) was > 1000 nM. As for `COCCNc1nc(Nc2ccc(F)cc2)c2cnn(C)c2n1` [Comp. 11, N^4-(4-fluorophenyl)-N^6-(2-methoxyethyl)-1-methyl-1H-pyrazolo[3,4-d]pyrimidine-4,6-diamine], the IC50 was > 1000 nM. On the same count and under the same terms, as for `Cn1ncc2c(Nc3ccc(F)cc3)nc(N3CCN(c4ccc(F)cc4)CC3)nc21` [Comp. 29, N-(4-fluorophenyl)-6-(4-(4-fluorophenyl)piperazine-1-yl)-1-methyl-1H-pyrazolo[3,4-d]pyrimidine-4-amine], the figure is 148 nM; as for `Cn1ncc2c(Nc3ccc(F)cc3)nc(NC3CCCCC3)nc21` [Comp. 14, N^6-cyclohexyl-N^4-(4-fluorophenyl)-1-methyl-1H-pyrazolo[3,4-d]pyrimidine-4,6-diamine], 5710 nM; as for `CN1CCN(c2nc(Nc3ccc(Cl)cc3)c3cnn(C)c3n2)CC1` [Comp. 6, N^6-(4-chlorophenyl)-1-methyl-6-(4-methylpiperazine-1-yl)-1H-pyrazolo[3,4-d]pyrimidine-4-amine], 29.4 nM. Still for that read-out and setting: for `CCN(CC)c1nc(Nc2ccc(F)cc2)c2cnn(C)c2n1` [Comp. 20, N^6,N^6-diethyl-N^4-(4-fluorophenyl)-1-methyl-1H-pyrazolo[3,4-d]pyrimidine-4,6-diamine] the value was 3310 nM; for `CN1CCN(c2nc(Nc3ccc(F)cc3)c3cnn(C)c3n2)CC1` [Comp. 25, N-(4-fluorophenyl)-1-methyl-6-(4-methylpiperazine-1-yl)-1H-pyrazolo[3,4-d]pyrimidine-4-amine], 85.8 nM. Regarding `CC1CCN(c2nc(Nc3ccc(F)cc3)c3cnn(C)c3n2)CC1` [Comp. 24, N-(4-fluorophenyl)-1-methyl-6-(4-methylpiperidine-1-yl)-1H-pyrazolo[3,4-d]pyrimidine-4-amine], the IC50 turned out to be 1500 nM.

On to `Cn1ncc2c(Nc3ccc(F)cc3)nc(NC3CCCC3)nc21` [Comp. 15, N^6-cyclopentyl-N^4-(4-fluorophenyl)-1-methyl-1H-pyrazolo[3,4-d]pyrimidine-4,6-diamine], for which the IC50 was > 1000 nM. Regarding `COCCCNc1nc(Nc2ccc(F)cc2)c2cnn(C)c2n1` [Comp. 12, N^4-(4-fluorophenyl)-N^6-(3-methoxypropyl)-1-methyl-1H-pyrazolo[3,4-d]pyrimidine-4,6-diamine], the IC50 is > 1000 nM. As for `CC1CC(C)CN(c2nc(Nc3ccc(F)cc3)c3cnn(C)c3n2)C1` (stereo not drawn) [Comp. 23, 6-(3,5-dimethylpiperidine-1-yl)-N-(4-fluorophenyl)-1-methyl-1H-pyrazolo[3,4-d]pyrimidine-4-amine], the IC50 is 3820 nM.

Take `C=CCNc1nc(Nc2ccc(F)cc2)c2cnn(C)c2n1` [Comp. 13, N^6-allyl-N^4-(4-fluorophenyl)-1-methyl-1H-pyrazolo[3,4-d]pyrimidine-4,6-diamine]: the IC50 was > 1000 nM.

In the case of `Cn1ncc2c(Nc3ccc(F)cc3)nc(N3CCN(CCO)CC3)nc21` [Comp. 26, 2-(4-(4-(4-fluorophenylamino)-1-methyl-1H-pyrazolo[3,4-d]pyrimidine-6-yl)piperazine-1-yl)ethanol], the IC50 was determined as 494 nM. Same read-out and setting: as for `CNc1nc(Nc2ccc(F)cc2)c2cnn(C)c2n1` [Comp. 8, N^4-(4-fluorophenyl)-N^6,1-dimethyl-1H-pyrazolo[3,4-d]pyrimidine-4,6-diamine], the figure is 7790 nM. On the same count and under the same terms, as for `COc1cccc(Nc2nc(N3CCN(C)CC3)nc3c2cnn3C)c1` [Comp. 32, N-(3-methoxyphenyl)-1-methyl-6-(4-methylpiperazine-1-yl)-1H-pyrazolo[3,4-d]pyrimidine-4-amine], the figure is 7.8 nM. Still for that read-out and setting: as for `Cn1ncc2c(Nc3ccc(F)cc3)nc(N3CCOCC3)nc21` [Comp. 21, N-(4-fluorophenyl)-1-methyl-6-morpholino-1H-pyrazolo[3,4-d]pyrimidine-4-amine], the figure is 2070 nM; as for `Cn1ncc2c(Nc3ccc(F)cc3)nc(N3CCN(c4ccccc4)CC3)nc21` [Comp. 28, N-(4-fluorophenyl)-1-methyl-6-(4-phenylpiperazine-1-yl)-1H-pyrazolo[3,4-d]pyrimidine-4-amine], 416 nM.

For `CN1CCN(c2nc(Nc3ccccc3)c3cnn(C)c3n2)CC1` [Comp. 3, 1-methyl-6-(4-methylpiperazine-1-yl)-N-phenyl-1H-pyrazolo[3,4-d]pyrimidine-4-amine], the IC50 is 86.9 nM.

The same assay, now with this note: read-out: Affinity for 5-HT2C receptor (IC50).
Regarding `COc1ccc(Nc2nc(N3CCN(c4ccc(F)cc4)CC3)nc3c2cnn3C)cc1` [Comp. 34, 6-(4-(4-fluorophenyl)piperazine-1-yl)-N-(4-methoxyphenyl)-1-methyl-1H-pyrazolo[3,4-d]pyrimidine-4-amine], the IC50 stood at 1180 nM.
